# Measured values published in patent publication US20230016424A1, “HYBRID AMIDE DERIVATIVES OF AMPHOTERICIN B” (The Board of Trustees of the University of Illinois, priority 2019, published 2023).
# Several values for one entry are separate records, joined by “and”; a condition that tells them apart may be missing. Equal entries are not always repeated.
# Key:
# A. calldoustus = test: MIC against moulds; format: cell-based; conditions: 6 isolates
# Candida albicans SN250 = test: Mouse model of invasive candidiasis (kidney CFU); conditions: for Mouse candidiasis model: 5 mpk
# Different Yeasts = test: Average MIC against different yeasts; format: cell-based; parameters: MICavg yeast (46 strains): unit not given beside the values; conditions: for MIC: 46 isolates
# Fonsecaea sp. = test: MIC against moulds; format: cell-based; conditions: 6 isolates
# A. niger = test: MIC against moulds; format: cell-based; conditions: 6 isolates
# [1] = test system: Purpureocillium lilacinum; test: MIC against rare moulds resistant to AmB; format: cell-based; conditions: 6 isolates
# Saksenaea sp. = test: MIC against moulds; format: cell-based; conditions: 4 isolates
# Solubility in D5W = conditions: for Solubility in D5W: 5% dextrose in water, room temperature; for Fold of Increase w.r.t. AmB (solubility): D5W
# Coccidioides immitis = test: microbe, parasite or virus in culture; format: cell-based
# CYP1A2 = target: T1, CYP1A2 (Homo sapiens, UniProt P05177); test: CYP Inhibition; format: in vitro ADME; conditions: human liver microsome; for P450 1A2 % Inhibition: 10 um
# T1 construct: from tissue; host or cells: human liver microsomes
# T1 sequence (P05177 1-516): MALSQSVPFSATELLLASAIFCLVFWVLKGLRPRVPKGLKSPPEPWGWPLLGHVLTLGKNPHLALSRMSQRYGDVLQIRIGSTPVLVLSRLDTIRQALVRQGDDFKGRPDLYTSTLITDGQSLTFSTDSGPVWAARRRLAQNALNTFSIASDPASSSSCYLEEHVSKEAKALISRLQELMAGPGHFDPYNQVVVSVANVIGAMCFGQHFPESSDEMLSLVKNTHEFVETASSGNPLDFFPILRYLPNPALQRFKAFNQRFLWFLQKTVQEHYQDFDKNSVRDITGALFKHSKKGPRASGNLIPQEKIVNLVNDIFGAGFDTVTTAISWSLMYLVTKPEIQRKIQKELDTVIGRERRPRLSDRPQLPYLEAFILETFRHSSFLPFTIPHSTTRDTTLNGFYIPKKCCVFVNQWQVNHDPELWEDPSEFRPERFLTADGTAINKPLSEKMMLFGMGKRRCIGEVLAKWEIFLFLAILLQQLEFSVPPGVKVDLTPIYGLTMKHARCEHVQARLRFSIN
# Experimental: The working solutions of the test compounds and the standard inhibitors were prepared in DMSO (100× final concentration). 20 ul of substrate solution (5 in 1 cocktail) was added to the wells followed by 2 ul test compound solution was added. 158 ul of human liver microsome (HLM) was added to all the wells of the incubated plate and warmed to 37° C. for 10 mins. 20 ul of NADPH cofactor solution was then added to all the wells of incubated plate and incubated at 37° C. for 10 mins. At the time point the reaction was quenched by adding 400 uL of cold stop solution. The samples were centrifuged at 4000 rpm for 20 mins to precipitate protein. 100 ul supernatant was diluted with 100 ul of ultra pure water and analyzed using LCMS.
# Cryptococcus gattii = test: MIC against yeasts; format: cell-based; conditions: 10 isolates
# Candida parapsilosis = test: MIC against yeasts; format: cell-based; conditions: 8 isolates
# Scedosporium aurantiacum = test: MIC against rare moulds resistant to AmB; format: cell-based; conditions: 4 isolates
# Histoplasma capsulatum = test: microbe, parasite or virus in culture; format: cell-based
# CYP2C19 = target: T2, CYP2C19 (Homo sapiens, UniProt P33261); test: CYP Inhibition; format: in vitro ADME; conditions: human liver microsome; for P450 2C19 % Inhibition: 10 um
# T2 construct: 158 ul of human liver microsome (HLM) was added to all the wells; from tissue; host or cells: human liver microsomes
# Mucor janssenii = test: MIC against moulds; format: cell-based; conditions: 6 isolates
# A. lentulus = test: MIC against moulds; format: cell-based; conditions: 6 isolates
# Rhodotorula sp. = test: MIC against yeasts; format: cell-based; conditions: 6 isolates
# Plasma Stability = format: in vitro ADME; conditions: for half-life at 1 µM: pH 7.4
# How it was run: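 Compound incubated in plasma at 37 °C, sampled in triplicate at 0, 10, 30, 60 and 120 min. Samples quenched with acetonitrile containing internal standards, centrifuged, and supernatant analysed by LC-MS/MS.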
# Cunninghamella sp. = test: MIC against moulds; format: cell-based; conditions: 6 isolates
# Coccidioides posadasii = test: microbe, parasite or virus in culture; format: cell-based
# [2] = test system: P. variotii MYA-3630 (QC); test: MIC against moulds; format: cell-based; conditions: 5 isolates
# T2 sequence (P33261 whole entry): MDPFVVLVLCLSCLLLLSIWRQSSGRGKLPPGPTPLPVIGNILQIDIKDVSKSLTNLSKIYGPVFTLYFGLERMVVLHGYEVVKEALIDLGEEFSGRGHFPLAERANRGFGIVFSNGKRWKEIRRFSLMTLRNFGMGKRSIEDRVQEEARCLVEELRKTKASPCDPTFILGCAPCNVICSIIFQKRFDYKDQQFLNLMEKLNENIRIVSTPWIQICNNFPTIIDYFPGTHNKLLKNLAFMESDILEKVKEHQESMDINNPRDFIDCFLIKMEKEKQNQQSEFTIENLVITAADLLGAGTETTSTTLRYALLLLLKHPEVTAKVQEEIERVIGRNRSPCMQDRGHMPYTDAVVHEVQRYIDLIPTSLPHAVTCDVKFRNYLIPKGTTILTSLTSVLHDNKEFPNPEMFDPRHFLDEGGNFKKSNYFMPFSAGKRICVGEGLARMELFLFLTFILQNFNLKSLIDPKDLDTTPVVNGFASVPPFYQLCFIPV
smiles,measurement,setting,value
CC1C=CC=CC=CC=CC=CC=CC=CC(OC2OC(C)C(O)C(N)C2O)CC2OC(O)(CC(O)CC(O)C(O)CCC(O)CC(O)CC(=O)OC(C)C(C)C1O)CC(O)C2C(=O)NCCO (stereo not drawn) [Compound BA],MIC,A. calldoustus,1.67 µM
same,Mouse candidiasis model,Candida albicans SN250,6.3 Log (CFU/mL)
same,Efficacy in mouse model of invasive candidiasis,Candida albicans SN250; in vivo,Highly Efficacious
same,MICavg yeast (46 strains),Different Yeasts,2.5
same,MIC,Different Yeasts,2.5 µM
same,MIC,Fonsecaea sp.,0.06 µM
same,MIC,A. niger,0.58 µM
same,MIC,[1],>16 µM
same,MIC,Saksenaea sp.,0.34 µM
same,Solubility in D5W,Solubility in D5W,>2600 µM
same,Fold of Increase w.r.t. AmB (solubility),Solubility in D5W,>113
same,MIC Coccidioides immitis,Coccidioides immitis,0.29 µM
same,P450 1A2 % Inhibition,CYP1A2,0.0%
same,MIC,Cryptococcus gattii,2 µM
same,MIC,Candida parapsilosis,2.5 µM
same,MIC,Scedosporium aurantiacum,>16 µM
same,MIC Histoplasma capsulatum,Histoplasma capsulatum,0.06 µM
same,P450 2C19 % Inhibition,CYP2C19,26.0%
same,MIC,Mucor janssenii,0.92 µM
same,MIC,A. lentulus,3 µM
same,MIC,Rhodotorula sp.,3.3 µM
same,% Remaining at 120 min,Plasma Stability; Human Plasma,118%
same,Half Life,Plasma Stability; Human Plasma,>289 min and >289; >289 min
same,% Remaining at 120 min,Plasma Stability; Mouse Plasma,100%
same,Half Life,Plasma Stability; Mouse Plasma,>289 min and >289; >289 min
same,MIC,Cunninghamella sp.,7.3 µM
same,MIC Coccidioides posadasii,Coccidioides posadasii,0.46 µM
same,MIC,[2],2.7 µM
CC1C=CC=CC=CC=CC=CC=CC=CC(OC2OC(C)C(O)C(N)C2O)CC2OC(O)(CC(O)CC(O)C(O)CCC(O)CC(O)CC(=O)OC(C)C(C)C1O)CC(O)C2C(=O)NCCF (stereo not drawn) [Compound BM],MIC,A. calldoustus,1.5 µM
same,Mouse candidiasis model,Candida albicans SN250,5.7 Log (CFU/mL)
same,MICavg yeast (46 strains),Different Yeasts,2.3
same,MIC,Different Yeasts,2.3 µM
same,MIC,Fonsecaea sp.,<0.03 µM
same,MIC,A. niger,3 µM
same,MIC,[1],>16 µM
same,MIC,Saksenaea sp.,0.34 µM
same,Solubility in D5W,Solubility in D5W,150 µM
same,Fold of Increase w.r.t. AmB (solubility),Solubility in D5W,6.5
same,MIC Coccidioides immitis,Coccidioides immitis,0.23 µM
same,P450 1A2 % Inhibition,CYP1A2,7.8%
same,MIC,Cryptococcus gattii,2 µM
same,MIC,Candida parapsilosis,2.4 µM
same,MIC,Scedosporium aurantiacum,>16 µM
same,MIC Histoplasma capsulatum,Histoplasma capsulatum,0.06 µM
same,P450 2C19 % Inhibition,CYP2C19,19.7%
same,MIC,Mucor janssenii,0.92 µM
same,MIC,A. lentulus,2.83 µM
same,MIC,Rhodotorula sp.,3.3 µM
same,Half Life,Plasma Stability; Human Plasma,>289; >289 min
same,Half Life,Plasma Stability; Mouse Plasma,>289; >289 min
same,MIC,Cunninghamella sp.,6 µM
same,MIC Coccidioides posadasii,Coccidioides posadasii,0.42 µM
same,MIC,[2],2.67 µM
"C[C@@H]1[C@H](O)[C@@H](C)/C=C/C=C/C=C/C=C/C=C/C=C/C=C/[C@H](OC2O[C@H](C)[C@@H](O)[C@H](N)[C@@H]2O)C[C@@H]2O[C@](O)(C[C@@H](O)C[C@@H](O)[C@H](O)CC[C@@H](O)C[C@@H](O)CC(=O)O[C@H]1C)C[C@H](O)[C@H]2C(=O)O (stereo partly drawn) [AmB, Amphotericin B]",MIC,A. calldoustus,1.5 µM
same,Mouse candidiasis model,Candida albicans SN250,5.2 Log (CFU/mL)
same,MICavg yeast (46 strains),Different Yeasts,0.9
same,MIC,Different Yeasts,0.9 µM
same,MIC,Fonsecaea sp.; Fonsecaea,< 0.03 µM
same,MIC,A. niger; Aspergillus niger,0.21 µM
same,MIC,[1]; Purpureocillium lilacinum,> 16 µM
same,MIC,Saksenaea sp.,0.06 µM
same,solubility,"Solubility in D5W; 5% dextrose in water (D5W), saline or isotonic, thermodynamic from solid",23 µM
same,MIC,"Coccidioides immitis; Coccidioides immitis, read-out: MIC Coccidioides immitis",0.125 µM
same,"inhibition at 10 min, 10 µM","CYP1A2; human liver microsomes, probe 5 in 1 substrate cocktail, read-out: P450 1A2 % Inhibition",23.1%
same,MIC,Cryptococcus gattii; Cryptococcus gattii,0.75 µM
same,MIC,Candida parapsilosis; Lodderomyces parapsilosis,1.1 µM
same,MIC,Scedosporium aurantiacum; Scedosporium aurantiacum,> 16 µM
same,MIC,"Histoplasma capsulatum; Histoplasma capsulatum, read-out: MIC Histoplasma capsulatum",0.06 µM
same,"inhibition at 10 min, 10 µM","CYP2C19; human liver microsomes, probe 5 in 1 substrate cocktail (substrates not named), read-out: P450 2C19 % Inhibition",7.3%
same,MIC,Mucor janssenii; Mucor janssenii,0.06 µM
same,MIC,A. lentulus; Aspergillus lentulus,3.75 µM
same,MIC,Rhodotorula sp.; Rhodotorula,1 µM
same,% Remaining at 120 min,Plasma Stability; Human Plasma,97.7%
same,Half Life,Plasma Stability; Human Plasma,>289; >289 min
same,% Remaining at 120 min,Plasma Stability; Rat Plasma,88.3%
same,half-life at 1 µM,Plasma Stability; Human Plasma,> 4.82 h
same,half-life at 1 µM,Plasma Stability; Mouse Plasma,> 4.82 h
same,half-life at 1 µM,Plasma Stability; Rat Plasma,> 4.82 h
same,MIC,Cunninghamella sp.; Cunninghamella,2 µM
same,MIC,"Coccidioides posadasii; Coccidioides posadasii, read-out: MIC Coccidioides posadasii",0.06 µM
same,MIC,[2]; Paecilomyces variotii,1 µM
